From patent publication US11008313B2, “Substituted 1-methyl-1,2,3,4-tetrahydroisoquinoline molecules as PCSK9 allosteric binders” (Merck Sharp & Dohme Corp., priority 2016, dated 2021)
“And” between values parts separate entries of the source, which are not always exact repeats. Equal values may be shown once. Read-outs that look alike come from different tables or passages of the source.

Legend:
PCSK9 = PCSK9 (Homo sapiens, UniProt Q8NBP7); assay: Fluorescence polarization competition binding assay (probe: compound of Example 57); settings: 2 μM PCSK9, 50 nM compound of Example 57 as probe, overnight incubation; read-out: FP IC
PCSK9, sequence (Q8NBP7 153-692): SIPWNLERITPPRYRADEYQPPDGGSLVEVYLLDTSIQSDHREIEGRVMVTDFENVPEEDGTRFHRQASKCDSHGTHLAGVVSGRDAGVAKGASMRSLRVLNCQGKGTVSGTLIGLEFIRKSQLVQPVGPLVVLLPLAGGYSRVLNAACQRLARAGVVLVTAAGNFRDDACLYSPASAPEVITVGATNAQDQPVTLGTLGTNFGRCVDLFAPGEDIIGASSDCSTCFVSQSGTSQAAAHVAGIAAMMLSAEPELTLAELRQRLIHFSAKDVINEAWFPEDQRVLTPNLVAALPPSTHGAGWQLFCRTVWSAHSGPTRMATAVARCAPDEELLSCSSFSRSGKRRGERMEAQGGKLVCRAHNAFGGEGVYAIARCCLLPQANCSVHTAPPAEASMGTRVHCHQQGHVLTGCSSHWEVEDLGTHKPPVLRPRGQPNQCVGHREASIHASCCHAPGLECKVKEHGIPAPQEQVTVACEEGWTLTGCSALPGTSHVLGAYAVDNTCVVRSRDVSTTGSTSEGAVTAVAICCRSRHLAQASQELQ
How it was run: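 Competition fluorescence-polarization binding: 2 μM PCSK9 with 50 nM fluorescent probe in 20 mM HEPES pH 7.5, 150 mM NaCl, 1 mM CaCl2, 0.005% P-20, incubated with test compound overnight in the dark. Anisotropy read; % inhibition relative to DMSO wells and probe-without-PCSK9 wells.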

[1] = target: T1, HEK293 cells stably overexpressing PCSK9 (Homo sapiens, UniProt Q8NBP7); assay: Protein degradation assay (Western Blot/Sally Sue assay); format: cell-based; settings: 24 hrs compound treatment, serum free DMEM
T1 construct: expressed in transfected cells
Experimental: Samples were run on the Sally Simple Western system from ProteinSimple (San Jose, Calif.) using default assay conditions. Briefly, 5×10^4 HEK293 cells stably overexpressing PCSK9 were seeded into Collagen I coated 96 well plates and allowed to recover overnight at 37° C. with 5% CO2. After 24 hrs of compound treatment in serum free DMEM cell culture medium, cells were washed with PBS and lysed in 100 ul RIPA buffer (Teknova) supplemented with protease inhibitors and subsequently mixed with fluorescent standards as per manufacturer's specifications, followed by denaturation at 95° C. for 5 minutes. Anti-PCSK9 mAb antibody (Abbomax, Cat. No. 601-650) was used for PCSK9 detection. The reported DC50 values represent the effective concentration of compound to lower PCSK9 protein levels, pro and mature, by 50%.

[2] = mature PCSK9 protein level lowered by 50%
[3] = pro PCSK9 protein level lowered by 50%
[4] = mature PCSK9 protein level lowered by 50%, read-out: PCSK9 DC50 (Mature)
[5] = pro PCSK9 protein level lowered by 50%, read-out: PCSK9 DC50 (Pro)

| Structure (SMILES) | IC50 (PCSK9) | PCSK9 DC50 (Mature) μM [1, 2] | PCSK9 DC50 (Pro) μM [1, 3] | DC50 [1, 4] [nM] | DC50 [1, 5] [nM] |
| --- | --- | --- | --- | --- | --- |
| COC(=O)c1ccc(-c2ccc(Oc3cc4c(cc3OCCOCCNC(=O)COCC(=O)N[C@H](C(=O)N3C[C@H](O)C[C@H]3C(=O)NCc3ccc(-c5scnc5C)cc3)C(C)(C)C)CCN[C@]4(C)CC(=O)Nc3nccs3)cc2F)cc1 [Example 107, methyl 2′-fluoro-4′-(((R)-6-(((S)-13-((2S,4R)-4-hydroxy-2-((4-(4-methylthiazol-5-yl)benzyl)carbamoyl)pyrrolidine-1-carbonyl)-14,14-dimethyl-7,11-dioxo-3,9-dioxa-6,12-diazapentadecyl)oxy)-1-methyl-1-(2-oxo-2-(thiazol-2-ylamino)ethyl)-1,2,3,4-tetrahydroisoquinolin-7-yl)oxy)-[1,1′-biphenyl]-4-carboxylate] | 831 nM | inactive | Inactive | – | – |
| C[C@]1(CC(=O)Nc2nccs2)NCCc2cc(OCCOCCOCCNC(=O)CC34CC5CC(CC(C5)C3)C4)c(Oc3ccc(-c4ccc(C(=O)O)cc4)c(F)c3)cc21 [Example 94, 4-(((R)-6-(2-(2-(2-(2-((3r,5r,7r)-adamantan-1-yl)acetamido)ethoxy)ethoxy)ethoxy)-1-methyl-1-(2-oxo-2-(thiazol-2-ylamino)ethyl)-1,2,3,4-tetrahydroisoquinolin-7-yl)oxy)-2′-fluoro-[1,1′-biphenyl]-4-carboxylic acid] | 76.9 nM | – | – | 8520 | 1360 |
| CC(C)Cc1ccc([C@H](C)C(=O)NCCOCCOc2cc3c(cc2Oc2ccc(-c4ccc(C(=O)O)cc4)c(F)c2)[C@@](C)(CC(=O)Nc2nccs2)NCC3)cc1 [Example 108] | 578 nM | inactive | Inactive | – | – |
| CC(C)Cc1ccc([C@H](C)C(=O)NCCOCCOCCOc2cc3c(cc2Oc2ccc(-c4ccc(C(=O)O)cc4)c(F)c2)[C@@](C)(CC(=O)Nc2nccs2)NCC3)cc1 [Example 93] | 188 nM and 578 nM | – | – | 4240 | 6180 |
| C[C@]1(CC(=O)Nc2nccs2)NCCc2cc(OCCOCCOCCOCCNC(=O)CC34CC5CC(CC(C5)C3)C4)c(Oc3ccc(-c4ccc(C(=O)O)cc4)c(F)c3)cc21 [Example 96] | 110 nM | – | – | 1050 | 6550 |
| C[C@]1(CC(=O)Nc2nccs2)NCCc2cc(OCCOCCNC(=O)CC34CC5CC(CC(C5)C3)C4)c(Oc3ccc(-c4ccc(C(=O)O)cc4)c(F)c3)cc21 [Example 104, 4′-(((R)-6-(2-(2-(2-((3r,5r,7r)-adamantan-1-yl)acetamido)ethoxy)ethoxy)-1-methyl-1-(2-oxo-2-(thiazol-2-ylamino)ethyl)-1,2,3,4-tetrahydroisoquinolin-7-yl)oxy)-2′-fluoro-[1,1′-biphenyl]-4-carboxylic acid] | 222 nM | – | – | 7520 | 1530 |
| CC(C)C[C@H](NC(=O)[C@@H](O)[C@H](N)Cc1ccccc1)C(=O)NCCOCCOCCOc1cc2c(cc1Oc1ccc(-c3ccc(C(=O)O)cc3)c(F)c1)[C@@](C)(CC(=O)Nc1nccs1)NCC2 [Example 95, 4′-(((R)-6-(((11S,14S,15R)-15-amino-14-hydroxy-11-isobutyl-10,13-dioxo-16-phenyl-3,6-dioxa-9,12-diazahexadecyl)oxy)-1-methyl-1-(2-oxo-2-(thiazol-2-ylamino)ethyl)-1,2,3,4-tetrahydroisoquinolin-7-yl)oxy)-2′-fluoro-[1,1′-biphenyl]-4-carboxylic acid] | 107 nM | inactive | Inactive | – | – |
| Cc1ncsc1-c1ccc(CNC(=O)[C@@H]2C[C@@H](O)CN2C(=O)[C@@H](NC(=O)COCCOCC(=O)NCCOCCOc2cc3c(cc2Oc2ccc(-c4ccc(C(=O)O)cc4)c(F)c2)[C@@](C)(CC(=O)Nc2nccs2)NCC3)C(C)(C)C)cc1 [Example 102, 2′-fluoro-4′-(((R)-6-(((S)-16-((2S,4R)-4-hydroxy-2-((4-(4-methylthiazol-5-yl)benzyl)carbamoyl)pyrrolidine-1-carbonyl)-17,17-dimethyl-7,14-dioxo-3,9,12-trioxa-6,15-diazaoctadecyl)oxy)-1-methyl-1-(2-oxo-2-(thiazol-2-ylamino)ethyl)-1,2,3,4-tetrahydroisoquinolin-7-yl)oxy)-[1,1′-biphenyl]-4-carboxylic acid] | 162 nM | inactive | Inactive | – | – |
| Cc1ncsc1-c1ccc(CNC(=O)[C@@H]2C[C@@H](O)CN2C(=O)[C@@H](NC(=O)COCCOCCOCC(=O)NCCOCCOc2cc3c(cc2Oc2ccc(-c4ccc(C(=O)O)cc4)c(F)c2)[C@@](C)(CC(=O)Nc2nccs2)NCC3)C(C)(C)C)cc1 [Example 103, 2′-fluoro-4′-(((R)-6-(((S)-19-((2S,4R)-4-hydroxy-2-((4-(4-methylthiazol-5-yl)benzyl)carbamoyl)pyrrolidine-1-carbonyl)-20,20-dimethyl-7,17-dioxo-3,9,12,15-tetraoxa-6,18-diazahenicosyl)oxy)-1-methyl-1-(2-oxo-2-(thiazol-2-ylamino)ethyl)-1,2,3,4-tetrahydroisoquinolin-7-yl)oxy)-[1,1′-biphenyl]-4-carboxylic acid] | 162 nM | inactive | Inactive | – | – |
| CC(C)(C)OC(=O)/N=C(/NCCC[C@@H](NC(=O)OC(C)(C)C)C(=O)NCCOCCOc1cc2c(cc1Oc1ccc(-c3ccc(C(=O)O)cc3)c(F)c1)[C@@](C)(CC(=O)Nc1nccs1)NCC2)NC(=O)OC(C)(C)C [Example 106, 4′-(((R)-6-(((R,Z)-6,11-bis((tert-butoxycarbonyl)amino)-2,2-dimethyl-4,12-dioxo-3,16-dioxa-5,7,13-triazaoctadec-5-en-18-yl)oxy)-1-methyl-1-(2-oxo-2-(thiazol-2-ylamino)ethyl)-1,2,3,4-tetrahydroisoquinolin-7-yl)oxy)-2′-fluoro-[1,1′-biphenyl]-4-carboxylic acid] | 655 nM | – | – | 3420 | 4820 |
| CC(C)C[C@@H](NC(=O)[C@H](O)[C@@H](N)Cc1ccccc1)C(=O)NCCOCCOc1cc2c(cc1Oc1ccc(-c3ccc(C(=O)O)cc3)c(F)c1)[C@@](C)(CC(=O)Nc1nccs1)NCC2 [Example 100, 4′-(((R)-6-(2-(2-((R)-2-((2R,3S)-3-amino-2-hydroxy-4-phenylbutanamido)-4-methylpentanamido)ethoxy)ethoxy)-1-methyl-1-(2-oxo-2-(thiazol-2-ylamino)ethyl)-1,2,3,4-tetrahydroisoquinolin-7-yl)oxy)-2′-fluoro-[1,1′-biphenyl]-4-carboxylic acid] | 96.4 nM | inactive | Inactive | – | – |
| CC(C)C[C@H](NC(=O)[C@@H](O)[C@H](N)Cc1ccccc1)C(=O)NCCOCCOCCOCCOc1cc2c(cc1Oc1ccc(-c3ccc(C(=O)O)cc3)c(F)c1)[C@@](C)(CC(=O)Nc1nccs1)NCC2 [Example 97, 4′-(((R)-6-(((14S,17S,18R)-18-amino-17-hydroxy-14-isobutyl-13,16-dioxo-19-phenyl-3,6,9-trioxa-12,15-diazanonadecyl)oxy)-1-methyl-1-(2-oxo-2-(thiazol-2-ylamino)ethyl)-1,2,3,4-tetrahydroisoquinolin-7-yl)oxy)-2′-fluoro-[1,1′-biphenyl]-4-carboxylic acid] | 130 nM | inactive | Inactive | – | – |
